# Experimental data published in patent US7321046B2, “Analogs of dictyostatin, intermediates therefor and methods of synthesis thereof” (University of Pittsburgh, priority 2002, dated 2008).
# Where two headings read alike, the source gives them in different places.
# How the values were obtained:
# Bovine brain tubulin = tested on: T1, Bovine brain tubulin; assay: Pelleting assay (tubulin assembly EC50 determination); format: biochemical; details: for % Tubulin polymerized by 50 μM test agent / EC50: tubulin 10 μM in 0.2 M MSG, 15 min at 20° C.; for EC50: concentration required to polymerize 50% of tubulin, read-out: EC50 (μM) ± SD (N)
# T1 construct: Bovine brain tubulin (10 μM) in 0.2 M MSG, 15 min at 20° C
# Method: Dictyostatin and representative analogs were evaluated in a quantitative assay for their ability to promote tubulin polymerization. […] When the percent polymer formed was determined in the reactions, a comparison of the activities of all the analogs could be made.
# The assay was performed under three different reaction conditions following the procedure reported earlier (Gapud et al., 2004). Reaction condition 1 included 0.2 M monosodium glutamate (MSG), 10 μM tubulin, 5% DMSO and varying concentrations of test agents. Reaction condition 2 included 0.8 M MSG, 400 μM GTP, 10 μM tubulin, 5% DMSO, and varying concentrations of test agents. Reaction condition 3 had 0.6 M MSG, 200 μM GTP, and 10 μM tubulin, and 5% DMSO, and varying concentrations of the test agents. The experimental protocol for all the three reaction conditions was the following. The reaction mixtures were incubated at room temperature (20-22° C.) for 15 min and spun for 10 min at 14,000 rpm in an Eppendorf microtube centrifuge. Aliquots of the supernatants were removed and assayed for protein content by the method of Lowry.
# [1] = tested on: 1A9/Ptx10 (Phe270 −> Val) β-tubulin mutant cells; assay: Antiproliferative assay (GI50, MTS), paclitaxel-resistant clone; format: cell-based, human; details: for fold-resistance: 1A9/Ptx10 versus parental 1A9
# Method: (§1) Representative analogs were examined for their antiproliferative activities against human ovarian carcinoma 1A9 cells and their paclitaxel-resistant mutants, 1A9/Ptx10 and 1A9/Ptx22.
# (§2) The effects of dictyostatin and its analogs on growth inhibition of parental ([…]) and paclitaxel-resistant (1A9/Ptx10 and Ptx22) ovarian adenocarcinoma cell lines were evaluated following the antiproliferative assay protocol as described earlier (Minguez et al., 2003; Choy et al., 2003; Lazo et al., 2001). Cells were maintained in RPMI medium with 10% FBS in it, plated in tissue culture plates, and allowed to grow for 48-72 h before transferring them into 96-well plates. Cells were allowed to attach and grow for 48 h in 96-well plates after which they were treated with either control (DMSO) or drug in triplicate/quadruplicate. Cells were incubated with the compounds for 72 h. Cells were treated with MTS reagent before reading the plate in a Dynamax plate reader for determining the cell number. The fifty percent growth inhibition values (GI50 values) were calculated for the compounds against all the three cell lines.
# [2] = tested on: 1A9/Ptx22 (Ala364 −> Thr) β-tubulin mutant cells; assay: as above; format: cell-based, human; details: for fold-resistance: 1A9/Ptx22 versus parental 1A9
# Method: as §1, §2
# [3] = Homo sapiens, 1A9/ptx-10, 72 h, read-out: GI50 ± S.D., 1A9/Ptx10 (Phe270 −> Val), 72 h incubation
# [4] = Homo sapiens, 1A9/ptx-22, 72 h, read-out: GI50 ± S.D., 1A9/Ptx22 (Ala364 −> Thr), 72 h incubation
smiles,measurement,setting,value
"C=C/C=C\[C@H](C)[C@H](OC(N)=O)[C@@H](C)[C@H](O)[C@@H](C)C/C(C)=C\[C@H](C)[C@@H](O)[C@@H](C)/C=C\[C@@H](O)C[C@@H]1OC(=O)[C@H](C)[C@@H](O)[C@H]1C [discodermolide, reference compound]",% Tubulin polymerized by 50 μM test agent,Bovine brain tubulin,98 ± 5%
same,EC50,Bovine brain tubulin,3.6 ± 0.4 µM
same,fold-resistance,[1],3.6 fold
same,GI50,[1]; [3],0.0062 ± 0.0036 µM
same,fold-resistance,[2],4.1 fold
same,GI50,[2]; [4],0.007 ± 0.0084 µM
"C=C/C=C\[C@H](C)[C@H](O)[C@@H](C)[C@H](O)CC[C@H](C)C[C@H](C)[C@@H](O)[C@@H](C)/C=C\[C@@H](O)C[C@H](O)[C@H](C)/C=C/C=C\C(=O)OC [Compound 50, (2Z,4E,6R,7S,9S,10Z,12S,13R,14S,16S,19R,20S,21S,22S,23Z)-Methyl-7,9,13,19,21-penta-hydroxy-6,12,14,16,20,22-hexamethylhexacosa-2,4,10,23,25-pentaenoate]",percent polymer formed (in words),Bovine brain tubulin,moderate activity
same,% Tubulin polymerized by 50 μM test agent,Bovine brain tubulin,39 ± 7%
same,EC50,Bovine brain tubulin,> 50 µM
same,fold-resistance,[1],1.4 fold
same,GI50,[1]; [3],0.079 ± 0.013 µM
same,fold-resistance,[2],1.5 fold
same,GI50,[2]; [4],0.085 ± 0.002 µM
"C=C/C=C\[C@H](C)[C@@H]1OC(=O)/C=C\C=C\[C@@H](C)[C@@H](O)C[C@H](O)/C=C\[C@H](C)[C@H](O)[C@@H](C)C[C@@H](C)CC[C@@H](O)[C@@H]1C [dictyostatin-1, (8S,10S,14R,20R)-Tetrahydroxy-(7R,13S,15S,17S,21S)-pentamethyl-(22S)-((1S)-methylpenta-2,4-dienyl)oxacyclodocosa-3,5,11-trien-2-one, reference compound]",% Tubulin polymerized by 50 μM test agent,Bovine brain tubulin,99 ± 4%
same,EC50,Bovine brain tubulin,3.1 ± 0.2 µM
same,fold-resistance,[1],4.6 fold
same,GI50,[1]; [3],0.0032 ± 0.0024 µM
same,fold-resistance,[2],1.9 fold
same,GI50,[2]; [4],0.0013 ± 0.001 µM
"C=CC=CC(C)C1OC(=O)C=CC=CC(C)C(O)CC(O)C=CC(C)C(O)C(C)CC(C)CCC(O)C1C [Compound 59, (8S,10S,14R,20S)-Tetrahydroxy-(7R,13S,15S,17S,21s)-pentamethyl-(22S)-((1S)-methylpenta-2,4-dienyl)-oxacyclodocosa-3,5,11-trien-2-one]",percent polymer formed (in words),Bovine brain tubulin,moderate activity
same,% Tubulin polymerized by 50 μM test agent,Bovine brain tubulin,30 ± 2%
same,EC50,Bovine brain tubulin,> 50 µM
same,fold-resistance,[1],5.7 fold
same,GI50,"[1]; read-out: GI50 ± S.D., 1A9/Ptx10 (Phe270 −> Val), 72 h incubation",0.12 ± 0.06 µM
same,fold-resistance,[2],2.0 fold
same,GI50,"[2]; read-out: GI50 ± S.D., 1A9/Ptx22 (Ala364 −> Thr), 72 h incubation",0.043 ± 0.012 µM
"C=CC=CC(C)C1OC(=O)C=CC=CC(C)C(O)CC(O)C=CC(C)C(O)C(C)CCCCC(O)C1C [Compound 79, (8S,10S,14R,20R)-Tetrahydroxy-(7R,13S,15S,21S)-tetramethyl-(22S)-((1S)-methylpenta-2,4-dienyl)-oxacyclodocosa-3,5,11-trien-2-one]",% Tubulin polymerized by 50 μM test agent,Bovine brain tubulin,91 ± 6%
same,EC50,Bovine brain tubulin,14 ± 7 µM
same,fold-resistance,[1],1146 fold
same,GI50,[1]; [3],0.47 ± 0.07 µM
same,fold-resistance,[2],14 fold
same,GI50,[2]; [4],0.0056 ± 0.0047 µM
